Among the data in patent publication US20240002393A1, “SUBSTITUTED BENZO[f][l ,2,4JTRIAZOL0[4,3-a][l ,4J[…] GABA A GAMMA! POSITIVE ALLOSTERIC MODULATORS” (Hoffmann-La Roche Inc., priority 2020, published 2024) are Ki values, retold here.

Experiment [1] addresses human GABAA α5β2γ1 receptor (Homo sapiens (Human), UniProt P31644+Q8N1C3). In words: Radioligand binding assay, [3H]RO7239181 competition, γ1-containing GABAA subtypes. The settings on record: HEK293F membranes, mean of two determinations. How it is done: The affinity of compounds at GABAA γ1 subunit-containing receptors was measured by competition for [^3H]RO7239181 (67.3 Ci/mmol; Roche) binding to membranes from HEK293F cells (ThermoFisher R79007) expressing human (transiently transfected) receptors of composition α5β2γ1, α2β2γ1, α1β2γ1. For better protein expression of the α2 subunit-containing receptors, the 28 amino acid long signal peptide (Met1 to Ala28) of the human GABAA α2 subunit was substituted by the 31 amino acid long signal peptide (Met1 to Ser31) of human GABAA α5 subunit.
Harvested pellets from HEK293F cells expressing the different GABAA receptor subtypes were resuspended in Mannitol Buffer pH 7.2-7.4 (Mannitol 0.29M, Triethylamine 10 mM, Acetic acid 10 mM, EDTA 1 mM plus protease inhibitors (20 tablets Complete, Roche Diagnostics Cat. No. 05 056 489 001 per liter)), washed two times and then resuspended at 1:10 to 1:15 dilution in the same buffer. Cell disruption was performed by stirring the suspension in a Parr vessel #4637 at 435 psi for 15 minutes, and then the suspensions were centrifuged at 1000×g for 15 minutes at 4° C. (Beckman Avanti J-HC; rotor JS)-4.2). The supernatant (S1) was transferred in a 21 Schott flask and the pellet (P1) was resuspended with Mannitol Buffer up to 175 ml. The resuspended pellet was transferred into a 250 ml Corning centrifugal beaker and centrifuged at 1500×g for 10 minutes at 4° C. (Beckman Avanti J-HC; rotor JS)-4.2). The supernatant (S1) was then transferred in the 21 Schott flask and the pellet was discarded. The supernatants (S1) were centrifuged in 500 ml Beckman polypropylene centrifugal beaker at 15,000×g for 30 minutes at 4° C. (Beckman Avanti J-20 XP; rotor JLA-10.500). The pellet (P2) was resuspended with Mannitol Buffer 1:1 and frozen at −80° C. The supernatant (S2) was centrifuged in 100 ml Beckman polypropylene centrifugal tubes at 48000×g for 50 minutes at […] (Beckman Avanti J-20 XP; rotor JA-18). The supernatant (S3) was discarded and the pellet (P3) was resuspended with 1:1 Mannitol Buffer. The P2 and P3 protein concentration was determined with the BIORAD Standard assay method with bovine serum albumin as standard and measured on the NANO-Drop 1000. The membrane suspension was aliquots (500 μl per tube) and stored at −80° C. until required.
Membrane homogenates were resuspended and polytronised (Polytron PT1200E Kinematica AG) in Potassium Phosphate 10 mM, KCl 100 mM binding buffer at pH 7.4 to a final assay concentration determined with a previous experiment.
Radioligand binding assays were carried out in a volume of 200 µL (96-well plates) which contained 100 μL of cell membranes, [^3H]RO7239181 at a concentration of 1.5 nM (α5β2γ1) or 20-30 nM (α1β2γ1, 2β2γ1) and the test compound in the range of [0.3-10000]×10^−9 M. Nonspecific binding was defined by 10×10^−6 (α5β2γ1) and 30×10^−6 M RO7235136 and typically represented less than 5% (α5β2γ1) and less than 20% (α1β2γ1, α2β2γ1) of the total binding. Assays were incubated to equilibrium for 1 hour at 4° C. and then, membranes were filtered onto unifilter (96-well white microplate with bonded GF/C filters preincubated 20-50 minutes in 0.3% Polyethylenimine) with a Filtermate 196 harvester (Packard BioScience) and washed 4 times with cold Potassium Phosphate 10 mM pH 7.4, KCl 100 mM binding buffer. After drying, filter-retained radioactivity was detected by liquid scintillation counting. K, values were calculated using Excel-Fit (Microsoft) and are the means of two determinations.
Representative test results, obtained by the above described assay measuring binding affinity to HEK293 cells expressing human (h) receptors, are shown in the Table 1.

Experiment [2] concerns the target human GABAA α1β3γ2 receptor (Homo sapiens (Human), UniProt P14867+P18507). In words: Radioligand binding assay, [3H]Flumazenil competition, γ2-containing GABAA subtypes. The conditions noted are these: HEK293F membranes, [3H]Flumazenil 1 nM, mean of two determinations; read-out: Ki h-GABAA α1β3γ2. How it is done: The affinity of compounds at GABAA γ2 subunit-containing receptors was measured by competition for [^3H]Flumazenil (81.1 Ci/mmol; Roche) binding to HEK293F cells expressing human (transiently transfected) receptors of composition α1β3γ2.
Harvested pellets from HEK293F cells expressing the different GABAA γ2 receptor subtypes were resuspended in Mannitol Buffer pH 7.2-7.4 and processed as described above for the cells expressing the GABAA γ1 subunit-containing receptors.
Assays were incubated to equilibrium for 1 hour at 4° C. and harvested onto GF/C uni-filters (Packard) by filtration using a Packard harvester and washing with ice-cold wash buffer (50 mM Tris; pH 7.5). After drying, filter-retained radioactivity was detected by liquid scintillation counting. Ki values were calculated using Exel-Fit (Microsoft) and are the means of two determinations.

Regarding `C[C@@H]1N=C(c2ccccc2F)c2c(ccc(Br)c2Cl)-n2cnnc21` [Example 30, (4S)-8-bromo-7-chloro-6-(2-fluorophenyl)-4-methyl-4H-[1,2,4]triazolo[4,3-a][1,4]benzodiazepine], the Ki in experiment [1] came to 0.0026 µM; in experiment [2], 0.582 µM.
The like results for `OC1N=C(c2c(F)cccc2F)c2c(ccc(Br)c2Cl)-n2cnnc21` (stereo not drawn) [Example 31, 8-bromo-7-chloro-6-(2,6-difluorophenyl)-4H-[1,2,4]triazolo[4,3-a][1,4]benzodiazepin-4-ol] were, in that order, 0.0028 µM and 0.707 µM.
On the same counts, the results for `C[C@@H]1N=C(c2ccccc2F)c2c(ccc(Br)c2Cl)-n2c(-c3cccnn3)nnc21` [Example 32, (4S)-8-bromo-7-chloro-6-(2-fluorophenyl)-4-methyl-1-pyridazin-3-yl-4H-[1,2,4]triazolo[4,3-a][1,4]benzodiazepine] are 0.0013 µM and 1.03 µM.
On the same counts, the results for `OC1N=C(c2ccccc2F)c2c(ccc(Br)c2Cl)-n2c(-c3cccnn3)nnc21` (stereo not drawn) [Example 35, 8-bromo-7-chloro-6-(2-fluorophenyl)-1-pyridazin-3-yl-4H-[1,2,4]triazolo[4,3-a][1,4]benzodiazepin-4-ol] are 0.0084 µM and 2.8 µM.
Regarding `C[C@@H]1N=C(c2c(F)cccc2F)c2c(ccc(Br)c2Cl)-n2cnnc21` [Example 51, (4S)-8-bromo-7-chloro-6-(2,6-difluorophenyl)-4-methyl-4H-[1,2,4]triazolo[4,3-a][1,4]benzodiazepine], the inhibitory constant (Ki) in experiment [1] was found to be 0.0008 µM; in experiment [2] it was 0.393 µM.
For `C[C@@H]1N=C(c2c(F)cccc2F)c2c(ccc(Cl)c2Cl)-n2c(-c3ccncn3)nnc21` [Example 52, (4S)-7,8-dichloro-6-(2,6-difluorophenyl)-4-methyl-1-pyrimidin-4-yl-4H-[1,2,4]triazolo[4,3-a][1,4]benzodiazepine], the results for the inhibition constant Ki in experiment [1] and in experiment [2] were 0.0011 µM and 0.638 µM, respectively.
Take `C[C@@H]1N=C(c2c(F)cccc2F)c2c(ccc(Cl)c2Cl)-n2c(-c3cnn(C)c3)nnc21` [Example 53, (4S)-7,8-dichloro-6-(2,6-difluorophenyl)-4-methyl-1-(1-methylpyrazol-4-yl)-4H-[1,2,4]triazolo[4,3-a][1,4]benzodiazepine]: the results for the inhibition constant Ki in experiment [1] and in experiment [2] were 0.0011 µM and 0.246 µM, respectively.
For `C[C@@H]1N=C(c2c(F)cccc2F)c2c(ccc(Cl)c2Cl)-n2c(-c3cccnn3)nnc21` [Example 56, (4S)-7,8-dichloro-6-(2,6-difluorophenyl)-4-methyl-1-pyridazin-3-yl-4H-[1,2,4]triazolo[4,3-a][1,4]benzodiazepine], the Ki in experiment [1] amounted to 0.0008 µM; in experiment [2], 0.851 µM.
Turning to `C[C@@H]1N=C(c2ncccc2F)c2c(ccc(Cl)c2Cl)-n2c(-c3cccnn3)nnc21` [Example 63, (4S)-7,8-dichloro-6-(3-fluoro-2-pyridyl)-4-methyl-1-pyridazin-3-yl-4H-[1,2,4]triazolo[4,3-a][1,4]benzodiazepine], the inhibitory constant (Ki) in experiment [1] stood at 0.0056 µM; in experiment [2], 4.08 µM.
The like results for `C[C@@H]1N=C(c2c(F)cccc2F)c2c(ccc(Cl)c2Cl)-n2c1n[nH]c2=O` [Example 64, (4S)-7,8-dichloro-6-(2,6-difluorophenyl)-4-methyl-2,4-dihydro-[1,2,4]triazolo[4,3-a][1,4]benzodiazepin-1-one] were, in that order, 0.0005 µM and 0.602 µM.
The like results for `C[C@@H]1N=C(c2ncccc2F)c2c(ccc(Cl)c2Cl)-n2c(-c3ccncn3)nnc21` [Example 66, (4S)-7,8-dichloro-6-(3-fluoro-2-pyridyl)-4-methyl-1-pyrimidin-4-yl-4H-[1,2,4]triazolo[4,3-a][1,4]benzodiazepine] were, in that order, 0.008 µM and 3.28 µM.
The like results for `C[C@@H]1N=C(c2ncccc2F)c2c(ccc(Cl)c2Cl)-n2c(-c3cnn(C)c3)nnc21` [Example 67, (4S)-7,8-dichloro-6-(3-fluoro-2-pyridyl)-4-methyl-1-(1-methylpyrazol-4-yl)-4H-[1,2,4]triazolo[4,3-a][1,4]benzodiazepine] were, in that order, 0.0032 µM and 1.42 µM.
